Results from US4870002A, “Method of prevention of oxidative injury to cells” (priority 1985, dated 1989).

Key:
pig RBCs = test: Thermal fragility / hemolysis of RBCs (410 nm absorbance of supernatant); assay type: cell-based; conditions: 340 μM; for effect on thermal hemolysis, in words: 48° C. for 30 min
Method: Blood was collected from Landrace-Duroc swine from a closed herd. Pigs from this herd had previously expressed episodes of porcine stress syndrome (malignant hyperthermia) following halothane anesthesia. The blood was collected into acidic citrated dextrose solution in standard blood bags. The blood was diluted 1:10 in phosphate (0.1M) buffered saline (PBS), pH 7.4, in 10 ml aliquots, centrifuged in a clinical centrifuge, and the erythrocytes were resuspended in fresh PBS. The cells were stored at 4° C. until used in the various assays. The post-collection chronological age of the RBCs used for a particular assay is noted in the results for each assay. The cells were counted in an automated cell counter (Coulter ZBI, Coulter Electronics, Inc., Hialeah, Fla. 33010).
Red blood cells were heated in 1 or 1.5 ml aliquots of PBS pH 7.4 with or without additional reagents in cellulose nitrate or polypropylene centrifuge tubes. Two concentrations of cells were used as indicated in the results. Heating was accomplished by three methods: microwave radiation, hot air, or water bath heating. The microwave device was a circularly polarized waveguide powered by a 1-kw S-band (microwave) amplifier (Model 10704,MCL, Inc., La Grange, Ill.). The heating of the sample at a specific absorption rate (SAR) of 91±4 W/kg (continuous wave (CW), 2450MHz) was offset by an air-cooling system that maintained a constant temperature. This system has been previously described in greater detail in Kiel, J. L. and D. N. Erwin, "Microwave and thermal interactions with oxidative hemolysis", 16 Physiol. Chem. Phys. Med. NMR, 317-323 (1984), which reference is hereby incorporated in its entirety by this specific reference thereto. […] The temperature was held within ±0.2° C. by this system. In the absence of microwave radiation, the temperature was held constant by hot air alone. The microwave/hot air system was brought to 37° C. for 15 min. prior to raising the temperature to 43° C. by microwaves or hot hot air. The water bath heating held the temperature within ±0.5° C. Heating times were 10, 15, or 30 min. The temperatures examined were 37°, 43°, 45°, or 48°.
Hemoglobin released into the supernatants of the heated cells were determined by the method described in the above-incorporated reference of Kiel and Erwin (1984). In brief, the supernatants were collected following centrifugation in a clinical centrifuge, diluted 1:2 in PBS, pH 7.4, and the optical absorbances at 410 nm were determined in a dual beam spectrophotometer. Pyruvate, lactate, inosine, hydrogen peroxide, mimosine, and/or 3-amino-L-tyrosine were added to the samples as indicated in Tables 1-3 and 9-12. All reagents were diluted in PBS and the final volumes of the samples were constant.

[1] = tested on: Con A-Lu-BSA labeled pig RBCs; test: Chemiluminescence of Con A-Lu-BSA labeled pig RBCs with exogenous hydrogen peroxide; assay type: cell-based
Method: The luminol-bovine serum albumin (Lu-BSA) complex was made by mixing 2 mg luminol (5-amino-2, 3-dihydrophthalazine-1,4-dione), 0.2 ml of 2 mg BSA/ml PBS (pH 6.9), and 1.6 ml of PBS, pH 6.9. The preparation was then passed through a 0.22 μm nitrocellulose filter to remove insoluble luminol. Next, 0.2 ml of 2 mg Con A/ml of PBS, pH 6.9, was added to the filtrate. After gentle mixing, 10 μl of 25% glutaraldehyde were added. The solution was incubated in the refrigerator for 1 hour. To stop the conjugation, 100 mg of glycine was added to the solution. The solution was then pressed through a 48 ml column of dextran gel filtration beads equilibrated with PBS, pH 6.9. The gel exclusion size was greater than 5000 for globular molecules. The fractions were collected and tested for luminescent labeling activity.
One ml of supernatant of each 10 ml aliquot of 1:20 diluted RBCs was replaced with 1 ml of Con A-Lu-BSA solution as previously described. The preparation was incubated for 15 min. at 37° C. in a water-jacketedcell culture incubator. The cells were then pelleted in a clinical centrifuge, resuspended in PBS, and washed in the same manner two additional times. The washed cells were maintained at 4° C. until used the same day of preparation.
Following exposure to chemical or physical stressors, 100 μl of the RBC suspension was added to 500 μl of PBS, pH 7.4, containing 0.3% hydrogen peroxide, in a scintillation vial. To activate the sample, 100 μl of 0.1N NaOH were added to the vial in place in an ATP photometer (Integrating ATP Photometer Model 3000, Science Applications, San Diego, California 92121) The photometer was set to a dark count of 1 count/30 second at a sensitivity of 600 at room temperature (approximately 23° C.). All counts followed a 5 second delay period to allow for stabilization of the photomultiplier. The counts are reported as counts/30 sec.
All essays were run at room temperature. The post-collection age of those cells was 11-18 days and the cells were used the day of labeling. […] Pyruvate (1.43 mM), an autoxidizable substrate, doubled the CL of labeled cells.

peroxidase = test: 3-aminotyrosine oxidation by peroxidase; assay type: biochemical

## NC(Cn1ccc(=O)c(O)c1)C(=O)O [L--mimosine, L-mimosine]
Pig RBCs; 48° C. 30 min
  Percent difference from controls (corrected), 4° C.: 95.1%
  Percent difference from controls (corrected), 48° C.: 21.5%
Pig RBCs; 48° C. 30 min, RBCs 20 days post collection, 1.4×10^9 per ml
  410 nm absorbance, Actual: 0.965 ± 0.026
Pig RBCs; 48° C. 30 min, corrected for RBC dilution
  410 nm absorbance, Corrected: 0.724
Pig RBCs; listed as Mimosine
  effect on thermal hemolysis, in words: had no effect
Pig RBCs; listed as mimosine
  effect on thermal hemolysis, in words: failed to protect
[1]; 630 μM
  CL (30 sec): 8,555 ± 1,044 counts/30 sec
  level of CL below natural RBC CL: 36%
[1]; 5 mM, 30 min at room temperature
  effect of prewashing labeled cells on CL, in words: no significant effect
[1]; Sus scrofa, Erythrocyte, 630 μM, read-out: Percent control
  activity at 630 µM: 28%
[1]; Sus scrofa, Erythrocyte, pretreatment 5 mM, 30 min, washed before activation, read-out: Percent control
  activity at 5000 µM: 94%
[1]; Sus scrofa, 630 μM, read-out: inhibition of CL
  inhibition at 630 µM: 72%
[1]; pretreatment 5 mM, 30 min, washed before activation
  CL (30 sec): 28,517 ± 2,591 counts/30 sec
peroxidase
  mode of inhibition, in words: uncompetitive inhibitor
